Usually IC50 stands for the concentration needed to halve the response being measured.

Each structure is given as a SMILES string.

This is an account of results in patent US12410157B2, “Compound useful as toll-like receptor 7 activation inhibitor” (TOYAMA PREFECTURAL UNIVERSITY, priority 2020, dated 2025).

A short description of data set [1]: Plasma concentration in normal mice after oral administration. It is filed as in vivo, mice (C57BL/6N). The following applies: C57BL/6N mice, 1 mg orally. As for the experimental part: Plasma concentrations of CB-7 or B2-24-4-5A·HCOOH were measured in normal mice (C57BL/6N, 11 weeks old, female) after oral administration. 1 mg of CB-7 or B2-24-4-5A·HCOOH was administered orally to mice C57BL/6N. After 0.5, 1, 2, 4, or 8 hours, blood was collected from mice C57BL/6N to prepare plasma. The concentration of CB-7 or B2-24-4-5A·HCOOH in the plasma was measured by LC/MS/MS.

Data set [2] is described as follows: Plasma concentration in mouse model of systemic lupus erythematosus after oral administration. It is filed as in vivo. The following applies: NZBWF1 mice, 5 mg/kg orally. As for the experimental part:
Plasma concentrations of B2-24-4-5A·HCOOH were determined after oral administration of B2-24-4-5A·HCOOH in a mouse model of systemic lupus erythematosus (NZBWF1, 20 weeks old, female). 5 mg/kg of B2-24-4-5A·HCOOH was administered orally to NZBWF1 mice. After 0.5, 1, 2, 4, 8, 16, or 24 hours, blood was collected from NZBWF1 mice to prepare plasma. The concentration of B2-24-4-5A·HCOOH in the plasma was determined by LC/MS/MS.

A further data set deals with T1, mouse TLR7 (Mus musculus, UniProt P58681).
T1 construct: expressed in transfected cells; host or cells: Ba/F3 cells (provided by Prof. Kensuke Miyake, University of Tokyo)
T1 sequence (P58681 27-1050): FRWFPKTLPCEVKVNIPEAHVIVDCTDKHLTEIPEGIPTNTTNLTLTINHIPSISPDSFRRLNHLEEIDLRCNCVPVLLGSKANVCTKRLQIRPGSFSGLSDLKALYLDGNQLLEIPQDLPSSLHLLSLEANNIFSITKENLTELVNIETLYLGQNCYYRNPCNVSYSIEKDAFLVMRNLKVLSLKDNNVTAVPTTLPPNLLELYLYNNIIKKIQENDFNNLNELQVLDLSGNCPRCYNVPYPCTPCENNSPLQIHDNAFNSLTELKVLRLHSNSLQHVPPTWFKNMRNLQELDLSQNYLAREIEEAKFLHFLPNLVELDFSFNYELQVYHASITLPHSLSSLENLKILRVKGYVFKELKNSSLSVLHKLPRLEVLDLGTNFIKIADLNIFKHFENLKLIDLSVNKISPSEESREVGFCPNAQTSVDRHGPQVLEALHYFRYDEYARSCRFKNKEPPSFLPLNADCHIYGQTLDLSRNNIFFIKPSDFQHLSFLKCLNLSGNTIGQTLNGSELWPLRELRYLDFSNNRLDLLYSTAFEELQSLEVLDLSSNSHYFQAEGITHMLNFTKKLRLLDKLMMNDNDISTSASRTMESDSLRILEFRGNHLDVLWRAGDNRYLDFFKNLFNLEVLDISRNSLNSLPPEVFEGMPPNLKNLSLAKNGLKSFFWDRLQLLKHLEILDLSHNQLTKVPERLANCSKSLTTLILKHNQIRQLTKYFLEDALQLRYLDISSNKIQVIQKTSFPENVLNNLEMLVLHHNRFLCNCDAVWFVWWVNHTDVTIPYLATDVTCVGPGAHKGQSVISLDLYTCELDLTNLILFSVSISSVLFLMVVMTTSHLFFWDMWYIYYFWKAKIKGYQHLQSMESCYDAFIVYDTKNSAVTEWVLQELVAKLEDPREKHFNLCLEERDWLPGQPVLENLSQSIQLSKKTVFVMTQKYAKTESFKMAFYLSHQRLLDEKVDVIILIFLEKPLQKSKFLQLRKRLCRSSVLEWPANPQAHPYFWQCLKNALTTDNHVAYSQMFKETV
The experiment in a line: Inhibition of TLR7 activation in mouse TLR7-expressing NF-κB-GFP reporter Ba/F3 cells. The following applies: Example 5, Table 5; method of Example 2; read-out: IC50. It is filed as cell-based. The source says: Mouse TLR7-expressing reporter cells (Ba/F3 cells) were used to evaluate inhibition of TLR7 activation in each derivative and CB-7. These cells were provided by Professor Kensuke Miyake (Department of Infection Genetics, Institute of Medical Science, University of Tokyo). These cells have been transfected with a reporter gene that connects GFP gene downstream of the promoter region of NF-κB. Therefore, the expression of GFP is enhanced by the addition of a ligand for TLR7 expressed by the cells. The fluorescence intensity of GFP was attenuated by the addition of each derivative, and the inhibition of TLR7 activation by each derivative was evaluated as an indicator.
Loxoribine (Alexis Biochemicals) was used as the ligand for mouse TLR7. Gardiquimod (Invivogen) was used as the ligand for human TLR7.
Ba/F3 cells cultured in RPMI 1640 medium containing 10% (v/v) fetal calf serum (FCS), 50 U/mL penicillin, 50 μg/mL streptomycin, 2 mM L-glutamine, […] 2-mercaptoethanol, 1 ng/mL interleukin-3 were aliquoted into 96-well plates so that the number of cells per well was 1.0×10^5 cells/100 μL. 50 μL of each derivative or CB-7, prepared to final concentrations of 1, 5, 10, 25, 50, and 100 µM, was added to each well. 96-well plates were incubated at 37° C. for 30 minutes in the presence of 5% CO2. Next, 250 μg/mL Roxoribin was added to each well and incubated for 18 hours. At the end of incubation, cells were washed with PBS (FACS buffer) containing 2.5% (v/v) FCS and suspended in 200 μL of FACS buffer containing 25 μg/mL […] for each cell. GFP fluorescence intensities of the cells were analyzed by flow cytometry. Flow cytometry measurement was performed on a FACSCanto™ II (Becton Dickinson) and data were analyzed with FlowJo software (Tree Star). The MFI (%) upon stimulation with roxoribin in the presence of […] derivatives or CB-7 was calculated using the MFI upon stimulation with roxoribin alone as 100%, and then IC50 (chemical compound concentration that inhibits activity by 50%) was calculated by logistic regression analysis.
The evaluation of the TLR7 activation inhibition by B2-24-4-5A·HCOOH was performed by the method described in Example 2. CB-7 and B2-24-4·HCl were used as controls.

Where [3] appears, read: female, mouse, plasma, po, LC/MS/MS.

Consider `C=C(C)[C@@H]1CC[C@]2(COC(=O)C2)C[C@H]1c1ccc(CN2CCNCC2)cc1` [B2-24-4-5A·HCOOH], for which the “Persistence in plasma compared to CB-7” value in data set [1] is “remains in plasma for a longer time than CB-7”. Moreover, the concentration at 8 h in data set [1] (setting [3]) is ~500 ng/mL. Also, the “Plasma level after 8 hours” value in data set [2] was “near-bottom level”. In data set [2] (setting [3]), this molecule returned a concentration at 0.5 h of 88.1 ng/mL. For the same molecule, on mouse TLR7, the IC50 amounted to 167 nM.
